Each block holds one compound with its values, some of them ahead of it.
Legend:
[1] = Urinary digoxin pharmacokinetics (Ae, CLr), digoxin alone vs with tigecycline; details: N = 20; for CL renal: human, urine and plasma, oral, 0.25 mg, CLr
Excerpt: In addition, a 24-hour urine collection (day 14 to day 15) for PK analysis was completed for each subject.
Subjects were required to void completely at the end of the predose period and at the end of each time interval after dose administration to ensure a complete interval collection.
Pharmacodynamic Assessments

clinical [2] = details: human, in vivo
Experimental: Both study medications were always administered 1 hour after a medium-fat meal. Tigecycline was administered intravenously (IV) in […] sterile normal saline over 30 minutes for all doses.
At approximately 8 AM, each subject received 100 mg of tigecycline. […] At approximately 8 PM, each subject received 50 mg of tigecycline.
In addition, on days 16 through 18, each subject received 50 mg of tigecycline every 12 hours (at approximately 8 AM and 8 PM).
All samples were collected from an indwelling catheter or by direct venipuncture into blood collection tubes containing ethylenediaminetetraacetic acid.
The Cmax and tmax values were taken directly from the observed data. The λz and t1/2 values were not estimable because blood samples were not collected during the terminal disposition phase.
Vss/F and MRT could not be calculated because λz could not be estimated.
(§1) Geometric least-squares (GLS) mean ratios of tigecycline PK parameters were computed, and their associated 90% confidence intervals (Cls) calculated based on least squares means and the mean square error obtained from the 2-way ANOVA. […] The SAS statistical software package was used for all statistical analyses.

clinical [3] = details: human, in vivo; for AUC(0-t): AUC0-12 h; for Vd: Vss
Experimental: One (1) hour after a medium-fat meal, and after a predose 7-mL blood sample for a baseline tigecycline PK analysis, each subject received a single 100-mg dose of tigecycline.
Venous blood samples (7 mL each) for determination of tigecycline concentrations in serum were collected at the following times: on day 1, predose (within 2 hours before the start of the tigecycline infusion), and at 0.5 (end of infusion), 1, 1.5, 2, 3, 4, 6, 8,12,16, 24, 36, 48, 72, and 96 hours after tigecycline administration; and on day 19, predose, and at 0.5 (end of infusion), 1,1.5, 2, 3, 4, 6, 8, 12,16, 24, 36, 48, 72, and 96 hours after tigecycline administration.
Serum tigecycline samples were analyzed by a validated liquid chromatography/tandem mass spectroscopy (LC/MS/MS) method.
Tigecycline peak serum concentration (Cmax) and time to peak concentration (tmax) were reported from the observed data. Concentrations that were judged to be in the terminal phase were used to obtain the terminal-phase disposition rate constant (λz) by log-linear regression. The half-life (t1/2) was calculated as 0.693/λz. Tigecycline concentrations over the time period from hours 24 to 96 were used to estimate the t1/2.
Total AUC0-εr and AUMC were estimated as follows: AUC=(AUCt)+Ct/λz, and AUMC=(AUMCt)+tlast·Ct/λz+Ct/λz●2
The IV clearance (CL) was calculated and normalized by body weight (WT) as follows: CL=Dose/(AUC●WT). The apparent Vss was estimated by Vss=CL·MRT.
For this period of the study, the MRT was calculated as: MRT=(AUMC0-t+(t·Ctλz))/AUC0-t.
According to linear PK theory, (Gibaldi M, Perrier D. Pharmacokinetics. Marcel Dekker, Inc., 1982) the total AUC after a single dose (AUC0-∞) is equal to AUC over the dose interval τ at steady state (AUC0 τ).
For statistical comparisons, AUC, MRT, and Vss on day 1 (period 1) were based on concentrations normalized to the 50-mg tigecycline dose given during period 3.
as §1

[4] = literature case reports and studies; cited from earlier work
[5] = format: in vivo, human
Excerpt: On each day before the start of study periods 1 and 2 (day-1 and day 6), all subjects underwent physical examinations, laboratory tests, vital sign assessments, and a standard 12-lead electrocardiogram (ECG), which included measurements of rhythm, heart rate, PR, QRS, QT, and QTc intervals. Adverse event monitoring was continuous, and blood samples for PK analysis was completed at the designated times throughout all study periods. Before dose administration on days 1, 7 and 15, 3 complete ECGs were performed for each subject, and the mean value used as the subject's baseline for each corresponding period.
Twelve (1 2)-lead ECGs were performed at screening, on day-1, on days 1, 7, 14, 15, and 19 within 2 hours before study drug administration, on days 2 through 6, 8 through 13, 16 through 18, 20, 21, and 22, and at the final evaluation at approximately 8 AM.
Descriptive statistics were obtained for all demographic characteristics, drug concentrations, PK parameters, and changes from baseline in ECG parameters. Analysis of variance (ANOVA) was performed on the natural logarithm-transformed PK parameters to evaluate treatment and subject effects. An analysis of the change from baseline in ECG parameters with and without multiple-dose tigecycline administration was conducted by using ANOVA, which included terms for subject and treatment effects. […]

- concentration at 0 h (clinical [2]): 0.405 ng/mL
- concentration at 0.5 h (clinical [2]): 0.686 ng/mL
- concentration at 1 h (clinical [2]): 1.02 ng/mL
- concentration at 2 h (clinical [2]): 0.966 ng/mL
- concentration at 4 h (clinical [2]): 0.645 ng/mL
- concentration at 6 h (clinical [2]): 0.517 ng/mL
- concentration at 8 h (clinical [2]): 0.531 ng/mL
- concentration at 10 h (clinical [2]): 0.451 ng/mL
- concentration at 12 h (clinical [2]): 0.405 ng/mL
- concentration at 16 h (clinical [2]): 0.383 ng/mL
- concentration at 24 h (clinical [2]): 0.33 ng/mL
- effect on the AUC, CL, or MRT of tigecycline (clinical [3]): did not affect
Compound: C[C@H]1O[C@@H](O[C@H]2[C@@H](O)C[C@H](O[C@H]3[C@@H](O)C[C@H](O[C@H]4CC[C@@]5(C)[C@H](CC[C@@H]6[C@@H]5C[C@@H](O)[C@]5(C)[C@@H](C7=CC(=O)OC7)CC[C@]65O)C4)O[C@@H]3C)O[C@@H]2C)C[C@H](O)[C@@H]1O [Digoxin]
- Ae, urinary digoxin, Geo. Mean [1]: 40.3%
- CL renal ([1]; digoxin renal clearance, Mean ± SD): 1.82 ± 0.37 mL/min/kg
- CL renal ([1]; digoxin, Geo. Mean): 1.79 mL/min/kg
- Ae, urinary digoxin, Mean ± SD ([1]; percentage of dose excreted unchanged in urine 0-24 h): 41.3 ± 9.0%

Compound: CC[C@H]1OC(=O)[C@H](C)[C@@H](O[C@H]2C[C@@](C)(OC)[C@@H](O)[C@H](C)O2)[C@H](C)[C@@H](O[C@@H]2O[C@H](C)C[C@H](N(C)C)[C@H]2O)[C@](C)(OC)C[C@@H](C)C(=O)[C@H](C)[C@@H](O)[C@]1(C)O [Clarithromycin]
- effect on plasma levels of digoxin [4]: increase plasma levels of digoxin, sometimes to toxic levels

Compound: CN(C)c1cc(NC(=O)CNC(C)(C)C)c(O)c2c1C[C@H]1C[C@H]3[C@H](N(C)C)C(O)=C(C(N)=O)C(=O)[C@@]3(O)C(O)=C1C2=O [Tigecycline]
- effect on steady-state digoxin PD as measured by changes from baseline in ECG parameters ([5]; PR, QRS, QT, QTc intervals at 24 hours): did not produce significant changes
- QT interval, change from baseline ([5]; in vivo): not changed further
- clearance (clinical [3]): 3.7 mL/min/kg
- half-life (clinical [3]): 26.7 h
- AUC(0-t) (clinical [3]; serum tigecycline, Geo. Mean): 2450 ng·h/mL
- AUC(0-t) (clinical [3]; serum tigecycline, Mean ± SD): 2480 ± 379 ng·h/mL
- AUC (clinical [3]; AUC, serum tigecycline, Mean ± SD): 2840 ± 732 ng·h/mL
- MRT (clinical [3]; serum tigecycline, Geo. Mean): 29 h
- MRT (clinical [3]; serum tigecycline, Mean ± SD): 30 ± 8.3 h
- Vd (clinical [3]; serum tigecycline, Geo. Mean): 6.43 L/kg
- Vd (clinical [3]; serum tigecycline, Mean ± SD): 6.53 ± 1.3 L/kg
- clearance (clinical [3]; iv): 3.82 mL/min/kg
